Molecules are shown by their SMILES.

JNK3, sequence (P53779 whole entry, species assumed): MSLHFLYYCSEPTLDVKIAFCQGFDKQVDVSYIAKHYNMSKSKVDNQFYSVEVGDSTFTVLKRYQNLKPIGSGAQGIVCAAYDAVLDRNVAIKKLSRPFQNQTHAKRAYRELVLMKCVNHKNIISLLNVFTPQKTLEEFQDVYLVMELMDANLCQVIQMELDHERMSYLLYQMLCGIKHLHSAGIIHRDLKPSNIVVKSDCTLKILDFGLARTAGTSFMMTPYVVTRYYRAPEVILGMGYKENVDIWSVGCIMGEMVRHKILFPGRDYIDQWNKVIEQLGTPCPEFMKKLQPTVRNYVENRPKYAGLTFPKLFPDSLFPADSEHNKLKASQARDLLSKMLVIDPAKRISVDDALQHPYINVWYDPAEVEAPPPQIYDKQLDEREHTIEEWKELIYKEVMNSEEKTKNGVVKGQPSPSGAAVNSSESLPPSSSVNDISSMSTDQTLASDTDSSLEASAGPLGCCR

The assay has as its target JNK3 (Homo sapiens, UniProt P53779). Nature of the assay: JNK3 SPA assay. It counts as biochemical. The following applies: 3.33 μM ATP, GST-c-Jun substrate; read-out: IC50 against JNK3. The procedure: JNK1, JNK2, JNK3—SPA Assay
JNK1, JNK2, JNK3—SPA Assay • 1. Compound is dissolved in DMSO to a convenient concentration and this is diluted in 10% DMSO to a five times concentrate of the desired starting concentration (frequently 1:100). • 2. 10 μl of 500 mM EDTA is added to alternative wells of the Opti-plate row, which will receive kinase reaction plus DMSO. This creates the negative control. • 3. For the JNK2 and JNK3 assay, compounds are prepared in six 2-fold dilutions with water and each concentration is tested in duplicate. For the JNK1 assay compounds are prepared in four 5-fold dilutions with water which are tested in triplicate. Controls are treated identically. • 4. 20 μl per well of each compound concentration is transferred to an Opti-plate, in duplicate. • 5. 30 μl (JNK2/3 SPA) or 50 μl (JNK1 SPA) of substrate solution (25 mM HEPES pH 7.5, 10 mM magnesium acetate with 3.33 μM ATP (JNK2/3) or 2 μM ATP (JNK1), approximately 7.5 kBq [γ-^33P] ATP, GST-c-Jun, in water) is added to each well. • 6. 50 μl (JNK2/3 SPA) or 30 μl (JNK1 SPA) of kinase solution (JNK in 25 mM HEPES pH 7.5, 10 mM Mg Acetate) is added to each well.
• 7. The plate is incubated for 30 minutes at room temperature. • 8. 100 μl of bead/stop solution is added to each well (5 mg/ml glutathione-PVT-SPA beads, 40 mM ATP in PBS). • 9. Plates are sealed and incubated for 30 minutes at room temperature, centrifuged for 10 minutes at 2500 g and counted. • 10. The IC50 values are calculated as the concentration of the compound being tested at which the phosphorylation of c-Jun is decreased to 50% of the control value.
As for `Cn1cc(-c2c[nH]c3ncc(C4CCC(F)(F)CC4)cc23)cn1` [Compound I-42, 5-(4,4-difluorocyclohexyl)-3-(1-methyl-1H-pyrazol-4-yl)-1H-pyrrolo[2,3-b]pyridine], the IC50 (commonly the concentration needed to halve the response being measured) is 138 nM.

Turning to `Cn1cc(-c2c[nH]c3ncc([C@H]4CC[C@H](N5CCCCC5)CC4)cc23)cn1` [Compound I-45, 3-(1-methyl-1H-pyrazol-4-yl)-5-((1r,4r)-4-(piperidin-1-yl)cyclohexyl)-1H-pyrrolo[2,3-b]pyridine], the half-inhibitory concentration (IC50) is 166 nM.

With `Cn1cc(-c2c[nH]c3ncc([C@H]4CC[C@@H](N5CCCCC5)CC4)cc23)cn1` [Compound I-46, 3-(1-methyl-1H-pyrazol-4-yl)-5-((1s,4s)-4-(piperidin-1-yl)cyclohexyl)-1H-pyrrolo[2,3-b]pyridine], the concentration for half-maximal inhibition (IC50) worked out at 151 nM.

As for `Cn1cc(-c2c[nH]c3ncc([C@H]4CC[C@H](N5CCC(F)(F)C5)CC4)cc23)cn1` [Compound I-47, 5-((1r,4r)-4-(3,3-difluoropyrrolidin-1-yl)cyclohexyl)-3-(1-methyl-1H-pyrazol-4-yl)-1H-pyrrolo[2,3-b]pyridine], the IC50 was found to be 93 nM.

Regarding `Cn1cc(-c2c[nH]c3ncc([C@H]4CC[C@@H](N5CCC(F)(F)C5)CC4)cc23)cn1` [Compound I-48, 5-((1s,4s)-4-(3,3-difluoropyrrolidin-1-yl)cyclohexyl)-3-(1-methyl-1H-pyrazol-4-yl)-1H-pyrrolo[2,3-b]pyridine], the half-inhibitory concentration (IC50) is 182 nM.

On to `Cn1cc(-c2c[nH]c3ncc([C@H]4CC[C@@H](N5CC[C@H](F)C5)CC4)cc23)cn1` [Compound I-49, 5-((1R,4s)-4-((S)-3-fluoropyrrolidin-1-yl)cyclohexyl)-3-(1-methyl-1H-pyrazol-4-yl)-1H-pyrrolo[2,3-b]pyridine], for which the IC50 came out at 316 nM.

On to `Cn1cc(-c2c[nH]c3ncc([C@H]4CC[C@H](N5CC[C@H](F)C5)CC4)cc23)cn1` [Compound I-50, 5-((1S,4r)-4-((S)-3-fluoropyrrolidin-1-yl)cyclohexyl)-3-(1-methyl-1H-pyrazol-4-yl)-1H-pyrrolo[2,3-b]pyridine], for which the IC50 is 214 nM.

Turning to `Cn1cc(-c2c[nH]c3ncc(C4=CC5(CC4)OCCO5)cc23)cn1` [Compound I-51, 3-(1-methyl-1H-pyrazol-4-yl)-5-(1,4-dioxaspiro[4.4]non-6-en-7-yl)-1H-pyrrolo[2,3-b]pyridine], the concentration for half-maximal inhibition (IC50) turned out to be 191 nM.

Regarding `CCN(CC)C1CCC(c2cnc3[nH]cc(-c4cnn(C)c4)c3c2)CC1` (stereo not drawn) [Compound I-52, N,N-diethyl-4-(3-(1-methyl-1H-pyrazol-4-yl)-1H-pyrrolo[2,3-b]pyridin-5-yl)cyclohexanamine], the IC50 worked out at 251 nM.

Turning to `Cn1cc(-c2c[nH]c3ncc([C@H]4CC[C@@H](N5CC[C@@H](F)C5)CC4)cc23)cn1` [Compound I-53, 5-((1S,4s)-4-((R)-3-fluoropyrrolidin-1-yl)cyclohexyl)-3-(1-methyl-1H-pyrazol-4-yl)-1H-pyrrolo[2,3-b]pyridine], the 50% inhibitory concentration (IC50) came out at 182 nM.

As to `Cn1cc(-c2c[nH]c3ncc([C@H]4CC[C@H](N5CC[C@@H](F)C5)CC4)cc23)cn1` [Compound I-54, 5-((1R,4r)-4-((R)-3-fluoropyrrolidin-1-yl)cyclohexyl)-3-(1-methyl-1H-pyrazol-4-yl)-1H-pyrrolo[2,3-b]pyridine], the concentration for half-maximal inhibition (IC50) is 174 nM.

As for `CCNC1CCC(c2cnc3[nH]cc(-c4cnn(C)c4)c3c2)CC1` (stereo not drawn) [Compound I-55, Ethyl-{4-[3-(1-methyl-1H-pyrazol-4-yl)-1H-pyrrolo[2,3-b]pyridin-5-yl]-cyclohexyl}-amine], the concentration for half-maximal inhibition (IC50) is 263 nM.

Consider `c1nn(CCN2CCOCC2)cc1-c1c[nH]c2ncc([C@H]3CC[C@H](N4CCOCC4)CC3)cc12` [Compound I-57, 4-(2-(4-(5-((1r,4r)-4-morpholinocyclohexyl)-1H-pyrrolo[2,3-b]pyridin-3-yl)-1H-pyrazol-1-yl)ethyl)morpholine], for which the concentration for half-maximal inhibition (IC50) was 417 nM.

As for `c1nn(CCN2CCOCC2)cc1-c1c[nH]c2ncc([C@H]3CC[C@@H](N4CCOCC4)CC3)cc12` [Compound I-58, 4-(2-(4-(5-((1s,4s)-4-morpholinocyclohexyl)-1H-pyrrolo[2,3-b]pyridin-3-yl)-1H-pyrazol-1-yl)ethyl)morpholine], the IC50 was greater than 500 nM.

`CN(C)[C@H]1CC[C@@H](c2cnc3[nH]cc(-c4cnn(CCN5CCOCC5)c4)c3c2)CC1` [Compound I-59, (1s,4s)-N,N-dimethyl-4-(3-(1-(2-morpholinoethyl)-1H-pyrazol-4-yl)-1H-pyrrolo[2,3-b]pyridin-5-yl)cyclohexanamine]: the half-maximal inhibitory concentration (IC50) is greater than 500 nM.

As to `CN(C)[C@H]1CC[C@H](c2cnc3[nH]cc(-c4cnn(CCN5CCOCC5)c4)c3c2)CC1` [Compound I-60, (1r,4r)-N,N-dimethyl-4-(3-(1-(2-morpholinoethyl)-1H-pyrazol-4-yl)-1H-pyrrolo[2,3-b]pyridin-5-yl)cyclohexanamine], the IC50 was greater than 500 nM.

Consider `C1=C(c2cnc3[nH]cc(-c4cnn(CCN5CCOCC5)c4)c3c2)CCC1` [Compound I-62, 5-Cyclopent-1-enyl-3-[1-(2-morpholin-4-yl-ethyl)-1H-pyrazol-4-yl]-1H-pyrrolo[2,3-b]pyridine], for which the IC50 amounted to 105 nM.

On to `COC1(c2cnc3[nH]cc(-c4cnn(C)c4)c3c2)CCCC1` [Compound I-63, 5-(1-methoxycyclopentyl)-3-(1-methyl-1H-pyrazol-4-yl)-1H-pyrrolo[2,3-b]pyridine], for which the IC50 came out at 468 nM.

For the compound `c1nn(CCN2CCOCC2)cc1-c1c[nH]c2ncc(C3CCCC3)cc12` [Compound I-64, 5-Cyclopentyl-3-[1-(2-morpholin-4-yl-ethyl)-1H-pyrazol-4-yl]-1H-pyrrolo[2,3-b]pyridine], the IC50 stood at 158 nM.

As to `CN1CCN([C@H]2CC[C@H](c3cnc4[nH]cc(-c5cnn(C(F)(F)F)c5)c4c3)CC2)CC1` [Compound I-66, 5-((1r,4r)-4-(4-methylpiperazin-1-yl)cyclohexyl)-3-(1-(trifluoromethyl)-1H-pyrazol-4-yl)-1H-pyrrolo[2,3-b]pyridine], the 50% inhibitory concentration (IC50) amounted to 219 nM.

In the case of `CN1CCN([C@H]2CC[C@@H](c3cnc4[nH]cc(-c5cnn(C(F)(F)F)c5)c4c3)CC2)CC1` [Compound I-67, 5-((1s,4s)-4-(4-methylpiperazin-1-yl)cyclohexyl)-3-(1-(trifluoromethyl)-1H-pyrazol-4-yl)-1H-pyrrolo[2,3-b]pyridine], the IC50 amounted to 178 nM.

Regarding `Cn1cc(-c2c[nH]c3ncc([C@H]4CC[C@H](CO)CC4)cc23)cn1` [Compound I-74, ((1r,4r)-4-(3-(1-methyl-1H-pyrazol-4-yl)-1H-pyrrolo[2,3-b]pyridin-5-yl)cyclohexyl)methanol], the IC50 is 63 nM.

With `Cn1cc(-c2c[nH]c3ncc(C4=CCC(N5CCOCC5)CC4)cc23)cn1` (stereo not drawn) [Compound I-75, 3-(1-Methyl-1H-pyrazol-4-yl)-5-(4-morpholin-4-yl-cyclohex-1-enyl)-1H-pyrrolo[2,3-b]pyridine], the IC50 is 89 nM.

Consider `Cn1cc(-c2c[nH]c3ncc([C@H]4CC[C@H](C(=O)O)CC4)cc23)cn1` [Compound I-76, (1r,4r)-4-(3-(1-methyl-1H-pyrazol-4-yl)-1H-pyrrolo[2,3-b]pyridin-5-yl)cyclohexanecarboxylic acid], for which the IC50 came to 251 nM.

Take `Cn1cc(-c2c[nH]c3ncc([C@H]4CC[C@@H](C(=O)O)CC4)cc23)cn1` [Compound I-77, (1s,4s)-4-(3-(1-methyl-1H-pyrazol-4-yl)-1H-pyrrolo[2,3-b]pyridin-5-yl)cyclohexanecarboxylic acid]: the concentration for half-maximal inhibition (IC50) is greater than 500 nM.

`c1n[nH]cc1-c1c[nH]c2ncc([C@H]3CC[C@@H](N4CCOCC4)CC3)cc12` [Compound I-78, 4-((1s,4s)-4-(3-(1H-pyrazol-4-yl)-1H-pyrrolo[2,3-b]pyridin-5-yl)cyclohexyl)morpholine]: the IC50 turned out to be 288 nM.

For the compound `c1n[nH]cc1-c1c[nH]c2ncc([C@H]3CC[C@H](N4CCOCC4)CC3)cc12` [Compound I-79, 4-((1r,4r)-4-(3-(1H-pyrazol-4-yl)-1H-pyrrolo[2,3-b]pyridin-5-yl)cyclohexyl)morpholine], the half-maximal inhibitory concentration (IC50) was determined as 117 nM.

Regarding `FC(F)n1cc(-c2c[nH]c3ncc([C@H]4CC[C@H](N5CCOCC5)CC4)cc23)cn1` [Compound I-80, 4-((1r,4r)-4-(3-(1-(difluoromethyl)-1H-pyrazol-4-yl)-1H-pyrrolo[2,3-b]pyridin-5-yl)cyclohexyl)morpholine], the IC50 turned out to be 148 nM.

Take `Cc1c(-c2c[nH]c3ncc([C@H]4CC[C@H](N5CCOCC5)CC4)cc23)cnn1C` [Compound I-95, 4-((1r,4r)-4-(3-(1,5-dimethyl-1H-pyrazol-4-yl)-1H-pyrrolo[2,3-b]pyridin-5-yl)cyclohexyl)morpholine]: the IC50 came out at 1510 nM.

For the compound `Cc1c(-c2c[nH]c3ncc([C@H]4CC[C@@H](N5CCOCC5)CC4)cc23)cnn1C` [Compound I-96, 4-((1s,4s)-4-(3-(1,5-dimethyl-1H-pyrazol-4-yl)-1H-pyrrolo[2,3-b]pyridin-5-yl)cyclohexyl)morpholine], the half-maximal inhibitory concentration (IC50) stood at 1700 nM.

The values are drawn from US8178552B2, “7-Azaindole derivatives and their use in the inhibition of c-Jun N-terminal kinase” (Eisai R&D Management Co., Ltd., priority 2008, dated 2012).
